In ChEMBL document CHEMBL2203217, “Prohormone-substrate peptide sequence recognition by peptidylglycine α-amidating monooxygenase and its reflection in increased glycolate inhibitor potency” (Bioorg Med Chem Lett, 2012) one finds IC50 data, which are given here for five molecules.

Test [1] addresses T1, Peptidyl-glycine alpha-amidating monooxygenase (Homo sapiens, UniProt P19021).
T1 sequence (P19021 whole entry): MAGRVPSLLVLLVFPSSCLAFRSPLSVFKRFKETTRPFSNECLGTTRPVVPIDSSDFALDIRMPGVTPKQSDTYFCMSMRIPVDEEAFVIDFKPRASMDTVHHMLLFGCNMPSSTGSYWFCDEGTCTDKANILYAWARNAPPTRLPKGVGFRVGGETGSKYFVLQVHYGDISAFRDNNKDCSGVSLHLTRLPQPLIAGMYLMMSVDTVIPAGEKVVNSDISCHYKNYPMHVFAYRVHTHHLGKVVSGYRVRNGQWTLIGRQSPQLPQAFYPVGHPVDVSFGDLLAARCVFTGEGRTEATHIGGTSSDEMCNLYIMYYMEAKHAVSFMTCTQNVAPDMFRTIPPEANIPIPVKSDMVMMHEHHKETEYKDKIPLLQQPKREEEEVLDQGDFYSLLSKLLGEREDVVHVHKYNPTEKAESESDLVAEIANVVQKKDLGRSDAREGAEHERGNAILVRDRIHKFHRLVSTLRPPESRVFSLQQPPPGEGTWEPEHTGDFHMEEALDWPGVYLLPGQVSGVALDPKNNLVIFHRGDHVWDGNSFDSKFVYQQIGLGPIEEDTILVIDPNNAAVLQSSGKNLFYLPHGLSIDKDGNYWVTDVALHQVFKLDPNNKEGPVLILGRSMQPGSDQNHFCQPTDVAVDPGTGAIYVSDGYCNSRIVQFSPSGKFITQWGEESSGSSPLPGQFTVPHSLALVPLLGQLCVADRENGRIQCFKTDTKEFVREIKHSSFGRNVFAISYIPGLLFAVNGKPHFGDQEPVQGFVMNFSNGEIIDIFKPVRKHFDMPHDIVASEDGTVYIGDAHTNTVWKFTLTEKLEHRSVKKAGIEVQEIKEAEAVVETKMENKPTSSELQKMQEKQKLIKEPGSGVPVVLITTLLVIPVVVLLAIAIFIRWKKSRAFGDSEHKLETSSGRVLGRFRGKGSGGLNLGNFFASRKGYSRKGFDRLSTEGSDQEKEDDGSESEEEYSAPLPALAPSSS
Nature of the test: Competitive inhibition of PAM in human DMS53 cells using as(R)-Tyr-(S)-Val-Gly as substrate after 2 hrs by HPLC analysis. In kind it is cell-based, DMS-53.

For test [2], the target named is T1, Peptidyl-glycine alpha-amidating monooxygenase. Nature of the test: Competitive inhibition of secreted PAM in human DMS53 cell culture medium using as(R)-Tyr-(S)-Val-Gly as substrate after 2 hrs by HPLC analysis. Details: species or system DMS-53.

For `O=C(O)COC(=O)[C@@H]1CCCN1`, the IC50 (usually the midpoint of a concentration-inhibition curve) amounted to 600 µM in test [1] and 500 µM in test [2].

For the molecule `CC(=O)N[C@@H](CC(C)C)C(=O)NCC(=O)OCC(=O)O`, the concentration for half-maximal inhibition (IC50) in test [1] was determined as 120 µM; in test [2], 200 µM.

As to `N[C@@H](Cc1ccccc1)C(=O)OCC(=O)O`, the figures for the IC50 in test [1] and in test [2] were 1100 µM and 1600 µM, respectively.

Turning to `C[C@H](NC(=O)CN)C(=O)N[C@@H](Cc1ccccc1)C(=O)OCC(=O)O`, the IC50 in test [1] stood at 560 µM; in test [2], 160 µM.

As to `C[C@H](N)C(=O)N[C@@H](Cc1ccccc1)C(=O)OCC(=O)O`, the IC50 in test [1] worked out at 350 µM; in test [2] it was 370 µM.
